{"source": "patent US20220193301A1", "about": "“CELL SUSPENSION AND USE THEREOF” (AVITA Medical, Inc., priority 2012, published 2022)", "test_system": "Primary Epidermal Keratinocytes (PEK), Normal, Human, Adult", "experiment": "In vitro Scratch Assay of keratinocytes (with and without mitomycin c)", "type": "cell-based", "conditions": "media/control group, no hydrogel", "excerpt": "1. Maintain stock cultures of Primary Epidermal Keratinocytes (PEK), Normal, Human, Adult cells in Dermal Cell Basal Medium supplemented with Keratinocyte Growth Kit and Gentamicin-Amphotericin B Solution (Complete Medium). Subculture the stock cultures of cells to 2.5×10^4 cells/ml (estimate) and re-feed with complete medium every 2 days or when a density of near confluence is reached. 2. To each well of a 24 well plate add appropriate test substances. Row A, Columns 1-3: blank, no cells, medium only. Row B, Columns 1-3: baseline, cells only, no coating. Row C-D, Columns 1-3 and Rows A-D, Columns 4-6: test substances at determined previously, in a serial dilution series as necessary. 3. Harvest cells and wash the PEK cells in Media by centrifugation at 150×g for 3 to5 minutes. 4. Determine cell number and viability (by trypan blue exclusion), and suspend the cells to a final concentration of 5×10^4 cells/ml in Media. 5. Dispense 600 μl of the cell suspension (30,000 cells) into all wells of the plate prepared in Step 2. 6. […]\nIn vitro Scratch Assay was performed according to the above protocol. […] In vitro re-epithelialization was documented by photography, and the amount of migration was manually quantified by computer-assisted image analysis. The data was expressed as a percentage of the area of the scratch filled by keratinocytes (FIG. 7). […]"}
{"compound": "CO[C@@]12[C@H](COC(N)=O)C3=C(C(=O)C(C)=C(N)C3=O)N1C[C@@H]1N[C@@H]12", "note": "[MMC, mitomycin c]", "values": [{"measurement": "healing of the scratch, MMC+ cells compared to MMC− cells", "value": "delayed healing"}]}
